For assay [1], the target named is T1, CYP2D6 (Homo sapiens, UniProt P10635).
T1 construct: Commercially available mixed human liver microsomes were used; from tissue; host or cells: pooled human liver microsomes
The assay can be described thus: CYP enzyme inhibition, human liver microsomes, CYP2D6. It is filed as in vitro ADME. The conditions noted are these: probe substrate Dextromethorphan, read-out: IC50 CYP 2D6. As to the method:
(§1) Commercially available mixed human liver microsomes were used, with the liver microsome concentrations of diclofenac, dextromethorphan, and midazolam being 0.1 mg/mL; and the liver microsome concentrations of phenacetin, bupropion, amodiaquine, mephenytoin, and testosterone being 0.2 mg/mL. Probe substrate, specific inhibitor and test compound (ABX464, compound 18) were diluted to the corresponding concentration of working solution for use. A mixed solution containing liver microsomes, MgCl2, substrate, […] inhibitor, and the test compound was prepared. After the incubation, 600 μL of ice-cold ACN working solution containing IS was added to terminate the reaction, and the mixture was centrifuged and used for LC-MS/MS detection. [table] At different concentrations of the test compound or positive inhibitor, the percentage of remaining activity is determined by the ratio of the amount of characteristic metabolites of the probe substrate generated to the corresponding amount generated in the absence of the test compound or positive inhibitor. […]
For orientation: Liver microsomes are a subcellular fraction often used to study metabolism.

Assay [2] concerns DSS colitis model. The assay can be described thus: In vivo efficacy in 3% DSS colitis model in mice. Also on record: species or system male C57BL/6 mice. The conditions noted are these: for Colon length / Colon weight / Pathological score: D0-D11, DSS colitis mice; for Colon length / Colon weight: D11; for Pathological score: colon HE staining. As to the method: In this experiment, male C57BL/6 mice (from Jiangsu Jicui Pharmaceutical Biotechnology Co., Ltd.) were used to establish a colitis model by freely drinking 3% DSS water. After the adaptive feeding of mice, they were randomly divided into 4 groups according to their body weight: normal control group, DSS enteritis model group, compound 18-10 mg/kg group, and ABX464-40 mg/kg group. The day of grouping was recorded as DO. On D0-D8, mice in G2-G4 groups were given 3% DSS drinking water, which was changed every 3 days. On D9-D11, mice in G2-G4 groups were given normal drinking water. The corresponding solvents and drugs were intragastrically administered for 11 consecutive days from D0 to D11. From D0 to D11, mice in the G1 group received normal diet and water, and were given blank-vehicle for 11 consecutive days. The mice were observed daily from D0 to D11, their weights were recorded, diarrhea scores and bloody stool scores were measured daily, and the DAI values were calculated. On D11, mice were euthanized, colon tissue was obtained, colon length was measured, colon weight was weighed, and photos were taken. The colon tissues were subjected to HE staining and pathological analysis. Statistical analysis: Independent sample T test was used. #: P<0.05 compared with the normal control group; ##: P<0.01 compared with the normal control group; ###: P<0.001 compared with the normal control group. *: P<0.05 compared with the model control group; **: P<0.01 compared with the model control group; ***: P<0.001 compared with the model control group.

Assay [3] has as its target T2, CYP3A4 (Homo sapiens, UniProt P08684).
T2 construct: Commercially available mixed human liver microsomes were used; from tissue; host or cells: pooled human liver microsomes
The assay can be described thus: CYP enzyme inhibition, human liver microsomes, CYP3A4. It is filed as in vitro ADME. As to the method: (§2) Commercially available mixed human liver microsomes were used, with the liver microsome concentrations of diclofenac, dextromethorphan, and midazolam being 0.1 mg/mL; and the liver microsome concentrations of phenacetin, bupropion, amodiaquine, mephenytoin, and testosterone being 0.2 mg/mL. Probe substrate, specific inhibitor and test compound (ABX464, compound 18) were diluted to the corresponding concentration of working solution for use. A mixed solution containing liver microsomes, MgCl2, substrate, […] inhibitor, and the test compound was prepared. After the incubation, 600 μL of ice-cold ACN working solution containing IS was added to terminate the reaction, and the mixture was centrifuged and used for LC-MS/MS detection. [table] At different concentrations of the test compound or positive inhibitor, the percentage of remaining activity is determined by the ratio of the amount of characteristic metabolites of the probe substrate generated to the corresponding amount generated in the absence of the test compound or positive inhibitor. If a significant decrease in the amount of metabolite production is found at the highest concentration setting point, the half inhibitory concentration (IC50) will be calculated using the log(inhibitor) vs. response—Variable slope formula of GraphPad Prism software: Y=Bottom+(Top−Bottom)/(1+10^((Log IC50−X)*Hillslope)) • X: Log (test compound or positive inhibitor concentration); • Y: Remaining activity percentage; • Top and Bottom: refer to the theoretical maximum and minimum remaining activity percentages respectively; and • Hillslope: slope coefficient or slope. If there is no significant decrease in metabolite production at the highest concentration setting point (percentage of enzyme remaining activity […]), the half inhibitory concentration (IC50) cannot be accurately calculated, and the reported IC50 is greater than the highest concentration tested.

Assay [4] concerns the target T3, CYP2C19 (Homo sapiens, UniProt P33261).
T3 construct: Commercially available mixed human liver microsomes were used; from tissue; host or cells: pooled human liver microsomes
Put plainly: CYP enzyme inhibition, human liver microsomes, CYP2C19. The class given is in vitro ADME. The conditions noted are these: probe substrate S-Mephenytoin, read-out: IC50 CYP 2C19. As to the method: as §1

Assay [5] concerns the target T4, CYP1A2 (Homo sapiens, UniProt P05177).
T4 construct: Commercially available mixed human liver microsomes were used; from tissue; host or cells: pooled human liver microsomes
T4 sequence (P05177 1-516): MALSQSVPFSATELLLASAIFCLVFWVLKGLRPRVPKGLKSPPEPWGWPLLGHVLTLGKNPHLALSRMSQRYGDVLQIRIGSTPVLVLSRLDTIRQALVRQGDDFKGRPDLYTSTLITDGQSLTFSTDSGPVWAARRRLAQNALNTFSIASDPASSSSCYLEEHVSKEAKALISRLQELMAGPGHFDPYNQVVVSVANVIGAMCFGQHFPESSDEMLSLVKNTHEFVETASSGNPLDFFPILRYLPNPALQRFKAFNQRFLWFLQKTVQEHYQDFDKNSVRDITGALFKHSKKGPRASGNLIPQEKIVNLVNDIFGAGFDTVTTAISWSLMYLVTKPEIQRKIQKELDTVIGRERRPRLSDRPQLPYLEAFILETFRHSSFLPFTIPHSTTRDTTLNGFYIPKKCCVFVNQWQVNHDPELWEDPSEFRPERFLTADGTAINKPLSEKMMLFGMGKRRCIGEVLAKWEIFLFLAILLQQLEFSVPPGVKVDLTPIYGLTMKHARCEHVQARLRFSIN
Put plainly: CYP enzyme inhibition, human liver microsomes, CYP1A2. The class given is in vitro ADME. The conditions noted are these: probe substrate Phenacetin; for pIC50: read-out: IC50 CYP 1A2. As to the method: as §2

Assay [6] addresses T5, CYP2C8 (Homo sapiens, UniProt P10632).
T5 construct: Commercially available mixed human liver microsomes were used; from tissue; host or cells: pooled human liver microsomes
T5 sequence (P10632 1-490): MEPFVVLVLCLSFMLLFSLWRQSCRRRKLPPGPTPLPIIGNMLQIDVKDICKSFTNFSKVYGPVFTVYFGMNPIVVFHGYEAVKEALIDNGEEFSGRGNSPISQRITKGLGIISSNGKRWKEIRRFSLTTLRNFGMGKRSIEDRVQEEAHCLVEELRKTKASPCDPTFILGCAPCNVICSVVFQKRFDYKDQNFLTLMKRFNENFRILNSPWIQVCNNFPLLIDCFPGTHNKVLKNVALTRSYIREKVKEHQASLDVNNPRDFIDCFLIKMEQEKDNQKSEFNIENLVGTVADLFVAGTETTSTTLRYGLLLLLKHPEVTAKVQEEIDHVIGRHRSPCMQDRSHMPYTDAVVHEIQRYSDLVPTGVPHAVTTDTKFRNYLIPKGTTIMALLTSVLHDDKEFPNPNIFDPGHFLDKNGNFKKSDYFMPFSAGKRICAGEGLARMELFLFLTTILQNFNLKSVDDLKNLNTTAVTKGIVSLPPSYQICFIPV
The assay can be described thus: CYP enzyme inhibition, human liver microsomes, CYP2C8. It is filed as in vitro ADME. The conditions noted are these: probe substrate Amodiaquine, read-out: IC50 CYP 2C8. As to the method: as §1

[7] abbreviates: probe substrate Midazolam, read-out: IC50 CYP 3A4-Midazolam.
The mark [8] stands for this setting: probe substrate Testosterone, read-out: IC50 CYP 3A4-Testosterone.
Where [9] appears, read: 10 mg/kg o.p. QD, listed as compound 18.
Setting [10] is: 10 mg/kg o.p. QD, DSS colitis mice.

The structures appear in SMILES notation. pIC50: −log10 of the molar value. Where two headings read alike, the source gives them in different places. Marks after values point to notes of the source that are not given here.

T2 sequence (P08684 whole entry): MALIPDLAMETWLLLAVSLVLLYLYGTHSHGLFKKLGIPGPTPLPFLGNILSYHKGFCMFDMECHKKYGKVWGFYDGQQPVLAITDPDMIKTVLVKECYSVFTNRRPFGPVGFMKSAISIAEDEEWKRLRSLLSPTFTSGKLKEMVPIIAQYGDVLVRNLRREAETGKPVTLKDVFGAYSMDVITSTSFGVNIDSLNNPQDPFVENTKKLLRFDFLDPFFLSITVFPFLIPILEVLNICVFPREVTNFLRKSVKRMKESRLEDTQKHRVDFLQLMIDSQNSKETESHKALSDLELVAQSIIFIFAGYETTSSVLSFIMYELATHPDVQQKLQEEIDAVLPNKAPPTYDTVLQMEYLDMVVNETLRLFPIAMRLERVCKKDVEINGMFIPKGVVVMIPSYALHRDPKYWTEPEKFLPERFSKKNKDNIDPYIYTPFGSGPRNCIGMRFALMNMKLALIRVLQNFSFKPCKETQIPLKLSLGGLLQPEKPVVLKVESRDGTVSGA
T3 sequence (P33261 whole entry): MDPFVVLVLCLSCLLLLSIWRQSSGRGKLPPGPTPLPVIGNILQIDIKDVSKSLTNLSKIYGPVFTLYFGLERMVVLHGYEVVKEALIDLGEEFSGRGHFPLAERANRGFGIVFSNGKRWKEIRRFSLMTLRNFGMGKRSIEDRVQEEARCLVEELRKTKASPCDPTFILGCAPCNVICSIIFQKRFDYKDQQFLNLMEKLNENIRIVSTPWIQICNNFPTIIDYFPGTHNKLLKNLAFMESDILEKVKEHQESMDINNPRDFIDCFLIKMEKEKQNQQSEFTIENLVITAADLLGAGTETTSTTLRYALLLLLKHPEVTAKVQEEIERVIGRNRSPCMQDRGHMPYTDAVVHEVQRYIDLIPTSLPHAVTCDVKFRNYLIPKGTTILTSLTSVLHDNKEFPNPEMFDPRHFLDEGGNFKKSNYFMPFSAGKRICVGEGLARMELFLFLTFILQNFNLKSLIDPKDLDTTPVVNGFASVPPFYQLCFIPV
T1 sequence (P10635 whole entry): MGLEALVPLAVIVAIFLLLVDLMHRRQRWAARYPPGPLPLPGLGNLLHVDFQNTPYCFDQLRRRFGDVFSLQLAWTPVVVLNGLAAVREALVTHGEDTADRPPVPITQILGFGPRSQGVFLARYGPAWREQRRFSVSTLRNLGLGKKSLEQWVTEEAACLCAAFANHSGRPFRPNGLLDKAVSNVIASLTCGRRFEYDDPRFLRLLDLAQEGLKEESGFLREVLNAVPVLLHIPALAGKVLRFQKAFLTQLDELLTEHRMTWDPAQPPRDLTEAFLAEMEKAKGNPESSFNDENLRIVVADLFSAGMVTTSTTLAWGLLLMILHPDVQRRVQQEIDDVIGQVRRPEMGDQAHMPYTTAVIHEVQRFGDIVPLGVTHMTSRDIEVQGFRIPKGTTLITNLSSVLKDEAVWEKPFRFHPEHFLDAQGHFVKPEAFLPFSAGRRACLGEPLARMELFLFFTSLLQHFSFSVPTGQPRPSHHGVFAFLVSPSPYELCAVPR

Consider `FC(F)(F)Oc1ccc(Nc2ccc3cccc(Cl)c3n2)cc1` [ABX464, reference compound], for which the pIC50 (commonly −log10 of the IC50, conventionally taken in molar units) in assay [1] is 4.76; in assay [3] (setting [7]), 4.14; in assay [3] (setting [8]), less than 4.00; in assay [4] it was 5.31; in assay [5] it was 7.01; in assay [6], 4.44. Moreover, the “DAI score compared with DSS enteritis model control group” value in assay [2] (40 mg/kg o.p. QD, DSS colitis mice) is reported as “significantly reduced”.
With `Fc1cc(Cl)c2nc(Nc3ccc(C4(C(F)(F)F)CC4)cc3)ccc2c1` [Compound 18, 8-chloro-6-fluoro-N-(4-(1-(trifluoromethyl)cyclopropyl)phenyl)quinolin-2-amine], the pIC50 in assay [1] is 4.32; in assay [3] (setting [7]), less than 4.00; in assay [3] (setting [8]), less than 4.00; in assay [4] it was 5.24; in assay [5] it was 4.67; in assay [6], 4.39. In addition, the Colon length in assay [2] (10 mg/kg o.p. QD) is recorded as 6.6*** cm; in assay [2] (setting [9]) it was “significantly increased”. For the same compound, the Colon weight in assay [2] (10 mg/kg o.p. QD) is on record as 0.3710** g; in assay [2] (setting [9]), “significantly increased”. Further, the Pathological score is listed as 4.00 in assay [2] (10 mg/kg o.p. QD) and “significantly reduced” in assay [2] (setting [9]). Further, the “Body weight of mice compared with DSS enteritis model control group” value in assay [2] (setting [10]) was “significantly increased”. Moreover, the “DAI score compared with DSS enteritis model control group” value in assay [2] (setting [10]) is “significantly reduced”. Also, in assay [5], the “IC50 CYP 1A2” value is “significantly superior to ABX464”.
